Reference: publication PMC6952396, “Structural basis for itraconazole-mediated NPC1 inhibition” (Nature Communications, 2020)
“And” between values parts separate entries of the source, which are not always exact repeats. Equal values may be shown once.

Biological target: T1, NPC1 (Cricetulus griseus, UniProt Q9JLG3)
T1 construct: CHO-7 cells in the medium are deprived of cholesterol to induce the LDL receptors biosynthesis; endogenous in cells; host or cells: CHO-7 cells
T1 sequence (Q9JLG3 23-1277): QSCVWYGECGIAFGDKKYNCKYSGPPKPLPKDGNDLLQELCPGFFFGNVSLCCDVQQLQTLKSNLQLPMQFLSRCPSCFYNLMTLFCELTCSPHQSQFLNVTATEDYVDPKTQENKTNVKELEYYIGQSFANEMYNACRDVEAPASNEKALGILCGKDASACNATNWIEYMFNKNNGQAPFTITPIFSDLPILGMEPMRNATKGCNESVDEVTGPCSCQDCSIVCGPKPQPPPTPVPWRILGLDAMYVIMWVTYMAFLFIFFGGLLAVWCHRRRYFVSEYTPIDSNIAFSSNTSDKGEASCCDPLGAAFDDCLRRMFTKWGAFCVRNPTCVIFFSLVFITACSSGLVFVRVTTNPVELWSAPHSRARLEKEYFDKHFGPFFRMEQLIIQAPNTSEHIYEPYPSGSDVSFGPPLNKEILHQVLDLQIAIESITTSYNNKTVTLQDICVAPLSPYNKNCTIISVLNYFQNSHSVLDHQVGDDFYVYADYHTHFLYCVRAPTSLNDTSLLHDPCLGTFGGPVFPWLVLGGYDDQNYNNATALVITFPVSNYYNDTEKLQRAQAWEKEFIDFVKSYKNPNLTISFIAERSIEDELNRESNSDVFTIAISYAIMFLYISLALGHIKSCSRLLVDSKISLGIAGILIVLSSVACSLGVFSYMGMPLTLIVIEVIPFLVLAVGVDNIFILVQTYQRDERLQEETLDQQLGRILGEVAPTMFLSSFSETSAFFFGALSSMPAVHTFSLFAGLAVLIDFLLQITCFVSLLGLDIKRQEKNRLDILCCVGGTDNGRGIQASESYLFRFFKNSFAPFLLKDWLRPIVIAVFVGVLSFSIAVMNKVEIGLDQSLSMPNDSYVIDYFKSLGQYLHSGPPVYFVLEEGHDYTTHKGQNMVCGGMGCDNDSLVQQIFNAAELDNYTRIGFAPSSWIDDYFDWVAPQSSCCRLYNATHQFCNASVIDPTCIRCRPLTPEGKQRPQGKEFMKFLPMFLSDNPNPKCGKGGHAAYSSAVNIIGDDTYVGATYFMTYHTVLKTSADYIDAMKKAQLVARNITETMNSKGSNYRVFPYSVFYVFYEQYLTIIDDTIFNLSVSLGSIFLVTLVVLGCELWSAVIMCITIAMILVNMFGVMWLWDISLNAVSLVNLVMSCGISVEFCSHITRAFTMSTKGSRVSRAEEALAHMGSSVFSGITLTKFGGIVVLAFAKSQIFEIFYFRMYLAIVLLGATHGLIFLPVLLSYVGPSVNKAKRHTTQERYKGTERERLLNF
Experiment: Cholesterol re-esterification (ACAT) assay measuring NPC1-mediated export of cholesterol from lysosomes in CHO-7 cells
Format: cell-based
Conditions: for cholesteryl [14C] oleate formed, Repeat 1 / cholesteryl [14C] oleate formed, Repeat 2: Fig. 2 source data; for cholesteryl [14C] oleate formed, Repeat 3 / cholesteryl [14C] oleate formed, Repeat 4: Supplementary Fig. 3 source data; for IC50: IC50 (concentration at which each compound inhibited cholesterol esterification by 50%), 10% FCS, 4 h then 2 h [14C] oleate pulse
Text: Itraconazole has three chiral centers (Supplementary Fig. 2a). The pharmaceutical form contains four cis-stereoisomers in a 1:1:1:1 molar ratio (Supplementary Fig. 2a–d). To determine the activity of the cis-stereoisomers, the individual isomers were isolated and identified based on their optical rotation in chloroform following a previous report (Supplementary Fig. 2e)[26]. Then, they were separately tested in a cholesterol re-esterification assay used to measure NPC1-mediated export of cholesterol from lysosomes. Briefly, CHO-7 cells in the medium are deprived of cholesterol to induce the LDL receptors biosynthesis. The cells are then incubated with fetal calf serum (FCS) that contains LDL. The LDL-derived cholesterol will now be transported by functional NPC1 protein from the lysosome to the endoplasmic reticulum (ER). The acyl-CoA:cholesterol actyltransferase named ACAT can now re-esterify the cholesterol in the ER. Therefore, the cells were pulse-labeled with [^14C] oleate and we can measure the synthesis of cholesteroyl [^14C] oleate to evaluate the activity of NPC1 protein. Using this assay, we tested the ability of various itraconazole to inhibit NPC1 activity.
Fig. 2 ACAT activity of itraconazole and ketoconazole in CHO-7 cells. On day 0, CHO-7 cells were set up in medium A with 5% LPDS at 2.5 × 10^5 cells/well in 6-well dish. On day 2, cells were switched to medium A with 5% LPDS containing 50 µM sodium compactin and 50 µM sodium mevalonate. On day 3 the cells received fresh medium B containing compactin and mevalonate with various concentration compounds in the presence of 10% FCS containing lipoproteins. After incubation for 4 h at 37 °C, each cell monolayer was pulse-labeled for 2 h with 0.1 mM sodium [^14C] oleate (5792 dpm/nmol). The cells were then harvested for measurement of their content of cholesteryl [^14C] oleate and [^14C] triglycerides, as described in Methods. […] Itraconazole mixture, isomer A (Supplementary Fig. 2a), isomer B (Supplementary Fig. 2b) and isomer C (Supplementary Fig. 2c) were added at final concentrations of 0.3 μM. The isomer D (Supplementary Fig. 2d), I-Br and ketoconazole were added at final concentrations of 1 μM. The biological repeats are shown as individual values. Source data are provided as a Source Data file.
On day 0, cells were set up in medium A with 5% LPDS at 2.5 × 10^5 cells/well in six-well dish. On day 2, cells were switched to medium A with 5% LPDS containing 50 µM sodium compactin and 50 µM sodium mevalonate. On day 3 the cells received fresh medium B containing compactin and mevalonate with indicated concentration triazole compounds in the presence of 10% FCS containing lipoproteins. After incubation for 4 h at 37 °C, each cell monolayer was pulse-labeled for 2 h with 0.1 mM sodium [^14C] oleate (5792 dpm/nmol). The cells were then harvested for measurement of their content of cholesteryl [^14C] oleate and [^14C] triglycerides.
The rate of incorporation of [^14C] oleate into cholesteryl [^14C] oleate and [^14C] triglycerides by monolayers of NPC1^−/− cells and CHO-7 cells was measured as described previously. In brief, cells were switched to medium containing LPDS supplemented with compactin and mevolonate at 16 h before the experiments. On the day of the experiment, cells were incubated for 4 h with fresh medium containing FCS as a source of cholesterol-containing lipoproteins. Cells were then pulse –labeled for 2 h with 0.1 mM sodium [^14C] oleate. Cells were then washed, and the lipids were extracted in hexane:isopropanol (3:2, vol:vol), separated on a silica gel G thin-layer chromatogram (developed in heptane:ethylether:acetic acid, 90:30:1), and quantified by scintillation counting with the use of an internal standard for recovery.

SMILES	cholesteryl [14C] oleate formed, Repeat 1 (0.06 uM compound)	cholesteryl [14C] oleate formed, Repeat 2 (0.06 uM compound)	cholesteryl [14C] oleate formed, Repeat 1 (0.1 uM compound)	cholesteryl [14C] oleate formed, Repeat 2 (0.1 uM compound)	cholesteryl [14C] oleate formed, Repeat 3 (0.1 uM compound)	cholesteryl [14C] oleate formed, Repeat 4 (0.1 uM compound)	cholesteryl [14C] oleate formed, Repeat 1 (0.3 uM compound)	cholesteryl [14C] oleate formed, Repeat 2 (0.3 uM compound)	cholesteryl [14C] oleate formed, Repeat 3 (0.3 uM compound)	cholesteryl [14C] oleate formed, Repeat 4 (0.3 uM compound)	cholesteryl [14C] oleate formed, Repeat 1 (1 uM compound)	cholesteryl [14C] oleate formed, Repeat 2 (1 uM compound)	cholesteryl [14C] oleate formed, Repeat 3 (1 uM compound)	cholesteryl [14C] oleate formed, Repeat 4 (1 uM compound)	IC50	other results
CC(=O)N1CCN(c2ccc(OCC3COC(Cn4ccnc4)(c4ccc(Cl)cc4Cl)O3)cc2)CC1 (centres unmarked) [Ketoconazole, ketoconazole]	5.105 nanomoles formed per hour per milligram cell protein	4.499 nanomoles formed per hour per milligram cell protein	5.133 nanomoles formed per hour per milligram cell protein	5.266 nanomoles formed per hour per milligram cell protein	5.665 nanomoles formed per hour per milligram cell protein	5.29 nanomoles formed per hour per milligram cell protein	4.872 nanomoles formed per hour per milligram cell protein	4.637 nanomoles formed per hour per milligram cell protein	4.5308 nanomoles formed per hour per milligram cell protein	5.341 nanomoles formed per hour per milligram cell protein	4.011 nanomoles formed per hour per milligram cell protein	4.3222 nanomoles formed per hour per milligram cell protein	3.625 nanomoles formed per hour per milligram cell protein	4.546 nanomoles formed per hour per milligram cell protein	> 1000 nM	inhibition of NPC1-mediated cholesterol transport (result in words): did not inhibit
CCC(C)n1ncn(-c2ccc(N3CCN(c4ccc(OCC5COC(Cn6cncn6)(c6ccc(Cl)cc6Cl)O5)cc4)CC3)c(Br)c2)c1=O (centres unmarked) [I-Br]	4.324 nanomoles formed per hour per milligram cell protein	4.164 nanomoles formed per hour per milligram cell protein	3.9836 nanomoles formed per hour per milligram cell protein	4.202 nanomoles formed per hour per milligram cell protein	4.772 nanomoles formed per hour per milligram cell protein	3.292 nanomoles formed per hour per milligram cell protein	1.539 nanomoles formed per hour per milligram cell protein	1.1254 nanomoles formed per hour per milligram cell protein	1.245 nanomoles formed per hour per milligram cell protein	1.037 nanomoles formed per hour per milligram cell protein	0.2467 nanomoles formed per hour per milligram cell protein	0.5544 nanomoles formed per hour per milligram cell protein	0.5005 nanomoles formed per hour per milligram cell protein	0.5131 nanomoles formed per hour per milligram cell protein	200 nM and ~200 nM	cholesteryl [14C] oleate formed, Repeat 1 (0.01 uM compound): 4.59 nanomoles formed per hour per milligram cell protein; cholesteryl [14C] oleate formed, Repeat 2 (0.01 uM compound): 4.968 nanomoles formed per hour per milligram cell protein; cholesteryl [14C] oleate formed, Repeat 3 (0.01 uM compound): 4.668 nanomoles formed per hour per milligram cell protein; cholesteryl [14C] oleate formed, Repeat 4 (0.01 uM compound): 4.998 nanomoles formed per hour per milligram cell protein; cholesteryl [14C] oleate formed, Repeat 1 (0.03 uM compound): 5.377 nanomoles formed per hour per milligram cell protein; cholesteryl [14C] oleate formed, Repeat 2 (0.03 uM compound): 4.886 nanomoles formed per hour per milligram cell protein; cholesteryl [14C] oleate formed, Repeat 3 (0.03 uM compound): 4.708 nanomoles formed per hour per milligram cell protein; cholesteryl [14C] oleate formed, Repeat 4 (0.03 uM compound): 4.077 nanomoles formed per hour per milligram cell protein; cholesteryl [14C] oleate formed, Repeat 3 (0.06 uM compound): 4.605 nanomoles formed per hour per milligram cell protein; cholesteryl [14C] oleate formed, Repeat 4 (0.06 uM compound): 3.966 nanomoles formed per hour per milligram cell protein
